Source: the NIST ThermoML archive (doi:10.1016/j.jct.2018.08.005)
Numbers after ± are expanded uncertainties.

Assay: xn = mol fraction of the nth substance listed
Details: Liquid; for speed of sound: Frequency=3 MHz, Pulse-echo method; for mass density: Vibrating tube method

CCOC(F)(C(F)(F)C(F)(F)C(F)(F)F)C(F)(C(F)(F)F)C(F)(F)F (stereo not given) [2-trifluoromethyl-3-ethoxydodecafluorohexane] + CC(C)OC(C)C
Details | mass density, x1 = 0.25 [kg/m3] | mass density, x1 = 0.375 [kg/m3] | mass density, x1 = 0.5 [kg/m3] | mass density, x1 = 0.625 [kg/m3] | mass density, x1 = 0.75 [kg/m3] | speed of sound, x1 = 0.25 [m/s] | speed of sound, x1 = 0.375 [m/s] | speed of sound, x1 = 0.5 [m/s] | speed of sound, x1 = 0.625 [m/s] | speed of sound, x1 = 0.75 [m/s]
293.15 K, 100 kPa | 1053.2 ± 0.8 | 1178.3 ± 0.7 | 1289.5 ± 0.8 | 1391.2 ± 0.7 | 1478.4 ± 0.8 | 802 ± 2.3 | 756.1 ± 2.2 | 719.2 ± 2.2 | 701.5 ± 2.2 | 686.9 ± 2.2
293.15 K, 10000 kPa | 1071 ± 0.8 | 1197.9 ± 0.8 | 1310.6 ± 0.8 | 1413.6 ± 0.8 | 1501.4 ± 0.8 | – | – | – | – | –
293.15 K, 20000 kPa | 1086.1 ± 0.8 | 1214.9 ± 0.8 | 1328.9 ± 0.8 | 1432.8 ± 0.9 | 1521.4 ± 1 | 930.1 ± 2.2 | 879 ± 2.2 | 839 ± 2.2 | 818.1 ± 2.1 | 799.8 ± 2.1
293.15 K, 30000 kPa | 1099.4 ± 0.8 | 1229.8 ± 0.8 | 1344.9 ± 0.9 | 1449.9 ± 1 | 1539 ± 1.1 | – | – | – | – | –
293.15 K, 40000 kPa | 1111.2 ± 0.8 | 1243.1 ± 0.9 | 1359.3 ± 1 | 1465.1 ± 1.2 | 1554.8 ± 1.3 | 1029.9 ± 2.2 | 975.3 ± 2.2 | 933 ± 2.2 | 909.4 ± 2.1 | 888.3 ± 2.2
293.15 K, 50000 kPa | 1122.1 ± 0.8 | 1255.2 ± 1 | 1372.4 ± 1.1 | 1479 ± 1.3 | 1569.2 ± 1.5 | – | – | – | – | –
293.15 K, 60000 kPa | 1132.1 ± 0.9 | 1266.3 ± 1.1 | 1384.4 ± 1.3 | 1491.7 ± 1.5 | 1582.4 ± 1.8 | 1113.8 ± 2.2 | 1056.9 ± 2.2 | 1012.2 ± 2.2 | 988 ± 2.1 | 963.7 ± 2.2
293.15 K, 70000 kPa | 1141.5 ± 0.9 | 1276.8 ± 1.1 | 1395.6 ± 1.4 | 1503.7 ± 1.8 | 1594.8 ± 2 | – | – | – | – | –
293.15 K, 80000 kPa | 1150.2 ± 1 | 1286.4 ± 1.2 | 1406.1 ± 1.6 | 1514.7 ± 2 | 1606.3 ± 2.3 | 1187.2 ± 2.2 | 1127.9 ± 2.2 | 1081.1 ± 2.2 | 1056.3 ± 2.2 | 1029.1 ± 2.2
293.15 K, 90000 kPa | 1158.4 ± 1 | 1295.5 ± 1.4 | 1416 ± 1.8 | 1525.1 ± 2.2 | 1617.1 ± 2.6 | – | – | – | – | –
293.15 K, 100000 kPa | 1166.2 ± 1.1 | 1304.3 ± 1.5 | 1425.3 ± 2 | 1535 ± 2.5 | 1627.3 ± 2.9 | 1254 ± 2.2 | 1190.8 ± 2.2 | 1143 ± 2.2 | 1116.9 ± 2.2 | 1088.5 ± 2.2
293.15 K, 110000 kPa | 1173.5 ± 1.1 | 1312.4 ± 1.7 | 1434.1 ± 2.2 | 1544.3 ± 2.7 | 1637.1 ± 3.2 | – | – | – | – | –
293.15 K, 120000 kPa | 1180.7 ± 1.2 | 1320.3 ± 1.8 | 1442.6 ± 2.4 | 1553.2 ± 3 | 1646.4 ± 3.4 | – | – | – | – | –
293.15 K, 130000 kPa | 1187.4 ± 1.3 | 1327.8 ± 2 | 1450.7 ± 2.6 | 1561.8 ± 3.2 | 1655.3 ± 3.7 | – | – | – | – | –
293.15 K, 140000 kPa | 1193.8 ± 1.4 | 1335.1 ± 2.1 | 1458.3 ± 2.8 | 1569.9 ± 3.5 | 1663.8 ± 4 | – | – | – | – | –
303.15 K, 100 kPa | 1038.3 ± 0.8 | 1161.8 ± 0.8 | 1271.6 ± 0.8 | 1372.4 ± 0.8 | 1458.7 ± 0.8 | 763.8 ± 2.2 | – | 687.9 ± 2.2 | 670.9 ± 2.2 | 656 ± 2.2
303.15 K, 10000 kPa | 1057.2 ± 0.8 | 1183 ± 0.8 | 1294.5 ± 0.8 | 1396.6 ± 0.8 | 1483.7 ± 0.9 | – | – | – | – | –
303.15 K, 20000 kPa | 1073.6 ± 0.8 | 1201.2 ± 0.8 | 1314.1 ± 0.8 | 1417.3 ± 0.9 | 1505.1 ± 1 | 898.1 ± 2.2 | 848.7 ± 2.2 | 812.7 ± 2.2 | 793.7 ± 2.2 | 773.5 ± 2.2
303.15 K, 30000 kPa | 1087.7 ± 0.8 | 1217 ± 0.8 | 1331.1 ± 0.9 | 1435.3 ± 1 | 1523.8 ± 1.1 | – | – | – | – | –
303.15 K, 40000 kPa | 1100.3 ± 0.8 | 1231.1 ± 0.9 | 1346.3 ± 1 | 1451.3 ± 1.2 | 1540.4 ± 1.3 | 1001.7 ± 2.2 | 948.6 ± 2.2 | 909.1 ± 2.2 | 889.5 ± 2.2 | 864.7 ± 2.2
303.15 K, 50000 kPa | 1111.7 ± 0.8 | 1243.8 ± 1 | 1360 ± 1.1 | 1465.8 ± 1.3 | 1555.5 ± 1.5 | – | – | – | – | –
303.15 K, 60000 kPa | 1122.1 ± 0.9 | 1255.4 ± 1 | 1372.6 ± 1.3 | 1479.2 ± 1.5 | 1569.3 ± 1.8 | 1089.1 ± 2.2 | 1032.1 ± 2.2 | 989.8 ± 2.2 | 969.5 ± 2.2 | 941.8 ± 2.2
303.15 K, 70000 kPa | 1131.8 ± 0.9 | 1266.2 ± 1.1 | 1384.2 ± 1.4 | 1491.4 ± 1.7 | 1582.1 ± 2 | – | – | – | – | –
303.15 K, 80000 kPa | 1140.8 ± 0.9 | 1276.1 ± 1.2 | 1395.1 ± 1.6 | 1502.8 ± 2 | 1594 ± 2.3 | 1164.4 ± 2.2 | 1104 ± 2.2 | 1059.8 ± 2.2 | – | 1008.7 ± 2.2
303.15 K, 90000 kPa | 1149.3 ± 1 | 1285.5 ± 1.3 | 1405.2 ± 1.8 | 1513.6 ± 2.2 | 1605.2 ± 2.5 | – | – | – | – | –
303.15 K, 100000 kPa | 1157.3 ± 1 | 1294.3 ± 1.5 | 1414.8 ± 2 | 1523.7 ± 2.4 | 1615.8 ± 2.8 | 1231.9 ± 2.2 | 1170.1 ± 2.2 | 1123 ± 2.2 | 1101.7 ± 2.2 | 1068.1 ± 2.2
303.15 K, 110000 kPa | 1164.9 ± 1.1 | 1302.8 ± 1.6 | 1423.9 ± 2.2 | 1533.3 ± 2.7 | 1625.8 ± 3.1 | – | – | – | – | –
303.15 K, 120000 kPa | 1172.1 ± 1.2 | 1310.8 ± 1.8 | 1432.6 ± 2.4 | 1542.4 ± 2.9 | 1635.3 ± 3.4 | – | – | – | – | –
303.15 K, 130000 kPa | 1178.8 ± 1.2 | 1318.4 ± 1.9 | 1440.8 ± 2.6 | 1551.2 ± 3.2 | 1644.4 ± 3.7 | – | – | – | – | –
303.15 K, 140000 kPa | 1185.4 ± 1.3 | 1325.9 ± 2.1 | 1448.7 ± 2.8 | 1559.5 ± 3.4 | 1653.1 ± 4 | – | – | – | – | –
313.15 K, 100 kPa | 1022.4 ± 0.8 | 1144.5 ± 0.8 | 1253.4 ± 0.8 | 1351.8 ± 0.8 | 1438.4 ± 0.8 | 729.6 ± 2.2 | – | 656.3 ± 2.2 | 641.2 ± 2.2 | 626.5 ± 2.2
313.15 K, 10000 kPa | 1042.9 ± 0.8 | 1167.7 ± 0.8 | 1278.3 ± 0.8 | 1378.1 ± 0.8 | 1465.4 ± 0.8 | – | – | – | – | –
313.15 K, 20000 kPa | 1060.3 ± 0.8 | 1187.2 ± 0.8 | 1299.2 ± 0.8 | 1400.1 ± 0.9 | 1488.1 ± 1 | 870.2 ± 2.2 | 821.7 ± 2.2 | 786.8 ± 2.2 | 769.5 ± 2.2 | 749.4 ± 2.2
313.15 K, 30000 kPa | 1075.3 ± 0.8 | 1203.9 ± 0.8 | 1317.2 ± 0.9 | 1419.2 ± 1 | 1507.8 ± 1.1 | – | – | – | – | –
313.15 K, 40000 kPa | 1088.5 ± 0.8 | 1218.6 ± 0.9 | 1333.1 ± 1 | 1436 ± 1.1 | 1525.3 ± 1.3 | 975.8 ± 2.2 | 924.1 ± 2.2 | 885.6 ± 2.2 | 866.8 ± 2.2 | 843.3 ± 2.2
313.15 K, 50000 kPa | 1100.5 ± 0.8 | 1232 ± 0.9 | 1347.4 ± 1.1 | – | – | – | – | – | – | –
